{
  "source": "patent US20080145858A1",
  "about": "“DETECTION AND IDENTIFICATION OF TOXICANTS BY MEASUREMENT OF GENE […]” (priority 2003, published 2008)",
  "test_system": "Xenopus laevis embryos",
  "experiment": "Embryonic morphology after PMA treatment",
  "format": "in vivo",
  "details": "added 21 hours after fertilization, 18° C. for 30 hours; untreated showed typical neurula",
  "method": "Embryos were sorted for successful cleavage to 2 cells (1.5 hours after fertilization), split into groups for subsequent treatment (triplicate treatments per each experimental group) and visually monitored for normal embryonic morphology. Rates of abnormal morphology were recorded for each group. Embryos at stage 8 were obtained after incubation of the fertilized embryos at 23° C. for 5 hours. PMA (100 ng/ml) or DMSO (0.01%, solvent used to dissolve PMA) was added to the embryos 2 hours after fertilization. […] Embryos at stage 15 were obtained after incubation of the fertilized embryos at 18° C. for 30 hours (the condition produced stage 15 embryos identical to embryos obtained at 23° C. for 10 hours). PMA or DMSO was added to the embryos 21 hours after fertilization.",
  "data": [
    {"compound": "CCCCCCCCCCCCCC(=O)O[C@@H]1[C@@H](C)[C@@]2(O)[C@@H](C=C(CO)C[C@@]3(O)C(=O)C(C)=C[C@@H]23)[C@@H]2C(C)(C)[C@]12OC(C)=O", "note": "[4 alpha-PMA]", "values": [
      {"measurement": "embryo morphology / developmental stage reached", "result": "typical neurula morphology"}
    ]}
  ]
}
